Experiments:
SMYD3 [1] = molecular target: T1, SMYD3 (Homo sapiens (Human), UniProt Q9H7B4); test: SMYD3 biochemical assay (SPA, 3H-SAM methylation of MEKK2 protein substrate)
Procedure, shortened: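 Native full-length human SMYD3 (E. coli-expressed, tags removed) was preincubated with compound for 30 min at room temperature in 25 mM Tris-Cl pH 8.0, 1 mM TCEP, 0.005% BSG, 0.005% Tween 20. Reaction was started with 3H-SAM plus GST-MEKK2, quenched with 100 uM unlabeled SAM, and read by SPA scintillation counting.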

SMYD3 [2] = molecular target: T1, SMYD3; test: SMYD3 cell assay (Trimethyl-MEKK2 In-Cell Western in 293T/17 cells); format: cell-based
Procedure, shortened: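 In-Cell Western ratio of trimethyl-Lys260 MEKK2 to anti-flag signal; percent inhibition from DMSO and maximum-inhibition controls, IC50 by non-linear regression, triplicates.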

[3] = read-out: SMYD3 Biochem IC50 (μM)*
[4] = 293T/17 cells, read-out: SMYD3 Cell IC50 (μM)*
[5] = Table 1A, IC50 values are an average of n = 1 to n = 50, read-out: SMYD3 Cell IC50
[6] = Table 1A, IC50 values are an average of n = 1 to n = 50, read-out: SMYD3 Biochem IC50
[7] = Table 2A, read-out: SMYD3 Biochem IC50
[8] = Table 2A, read-out: SMYD3 Cell IC50

T1 sequence (Q9H7B4 whole entry): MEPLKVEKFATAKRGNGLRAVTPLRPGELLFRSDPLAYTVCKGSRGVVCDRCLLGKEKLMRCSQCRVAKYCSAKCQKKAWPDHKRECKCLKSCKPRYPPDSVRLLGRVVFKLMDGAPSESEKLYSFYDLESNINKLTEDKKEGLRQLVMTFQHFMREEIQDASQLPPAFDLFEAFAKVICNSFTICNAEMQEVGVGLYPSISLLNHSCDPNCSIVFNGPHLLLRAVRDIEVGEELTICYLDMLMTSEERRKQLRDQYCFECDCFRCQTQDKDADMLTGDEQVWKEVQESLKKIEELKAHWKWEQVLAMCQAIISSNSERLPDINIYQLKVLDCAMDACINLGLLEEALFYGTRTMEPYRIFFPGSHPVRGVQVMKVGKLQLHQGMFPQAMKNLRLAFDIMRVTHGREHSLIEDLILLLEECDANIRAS

Row | Structure (SMILES) | IC50 (SMYD3 [2]; [5]) | IC50 (SMYD3 [1]; [6]) | also measured
1 | NCCCS(=O)(=O)N1CCC(NC(=O)c2cc(C3CC3)on2)C[C@@H]1c1ccccc1 (stereo partly drawn) [compound 480, N-((2R)-1-((3-aminopropyl)sulfonyl)-2-phenylpiperidin-4-yl)-5-cyclopropylisoxazole-3-carboxamide] | – | – | IC50 (SMYD3 [1]; [3]): 0.0658 µM; IC50 (SMYD3 [2]; [4]): 2.24 µM
2 | NCCCS(=O)(=O)N1CCC(NC(=O)c2cc(C3CC3)on2)C[C@H]1c1ccccc1 (stereo partly drawn) [compound 481, N-((2S)-1-((3-aminopropyl)sulfonyl)-2-phenylpiperidin-4-yl)-5-cyclopropylisoxazole-3-carboxamide] | – | – | IC50 (SMYD3 [1]; [3]): 0.479 µM; IC50 (SMYD3 [2]; [4]): 4.47 µM
3 | C[C@H]1C[C@@H](NC(=O)c2cc(C3CC3)on2)CCN1S(=O)(=O)C1CCOC1 (stereo partly drawn) [compound 482, 5-cyclopropyl-N-((2S,4S)-2-methyl-1-((tetrahydrofuran-3-yl)sulfonyl)piperidin-4-yl)isoxazole-3-carboxamide] | – | – | IC50 (SMYD3 [1]; [3]): 0.928 µM; IC50 (SMYD3 [2]; [4]): 2.83 µM
4 | C[C@H]1C[C@@H](NC(=O)c2cc(C3CC3)on2)CCN1S(=O)(=O)c1c[nH]cn1 [compound 483, N-((2S,4S)-1-((1H-imidazol-4-yl)sulfonyl)-2-methylpiperidin-4-yl)-5-cyclopropylisoxazole-3-carboxamide] | – | – | IC50 (SMYD3 [1]; [3]): 0.533 µM; IC50 (SMYD3 [2]; [4]): 2.13 µM
5 | NCCCS(=O)(=O)N1[C@@H]2CC[C@H]1C[C@H](NC(=O)c1cc(C3CC3)on1)C2 [compound 484, N-((1R,3s,5S)-8-((3-aminopropyl)sulfonyl)-8-azabicyclo[3.2.1]octan-3-yl)-5-cyclopropylisoxazole-3-carboxamide] | – | – | IC50 (SMYD3 [1]; [3]): 0.0792 µM; IC50 (SMYD3 [2]; [4]): 1.44 µM
6 | O=C(NC1CC2CCCC(C1)N2S(=O)(=O)CC1CCCNC1)c1cc(C2CC2)on1 (stereo not drawn) [compound 488, 5-cyclopropyl-N-(9-((piperidin-3-ylmethyl)sulfonyl)-9-azabicyclo[3.3.1]nonan-3-yl)isoxazole-3-carboxamide] | 0.857 µM | – | IC50 (SMYD3 [1]; read-out: SMYD3 Biochem IC50): 0.0451 µM
7 | O=C(Nc1ccc(S(=O)(=O)N2[C@@H]3CC[C@H]2C[C@H](NC(=O)c2cc(C4CC4)on2)C3)cc1)c1ccncc1 [compound 489, 5-cyclopropyl-N-((1R,3s,5S)-8-((4-(isonicotinamido)phenyl)sulfonyl)-8-azabicyclo[3.2.1]octan-3-yl)isoxazole-3-carboxamide] | 6.66 µM | 5.42 µM | –
8 | O=C1Cc2cc(S(=O)(=O)N3[C@@H]4CC[C@H]3C[C@H](NC(=O)c3cc(C5CC5)on3)C4)c(Cl)cc2N1 [compound 490, N-((1R,3s,5S)-8-((6-chloro-2-oxoindolin-5-yl)sulfonyl)-8-azabicyclo[3.2.1]octan-3-yl)-5-cyclopropylisoxazole-3-carboxamide] | > 10 µM | 9.23 µM | –
9 | O=C(N[C@@H]1C[C@H]2CC[C@@H](C1)N2S(=O)(=O)c1cc2oc(=O)[nH]c2cc1Cl)c1cc(C2CC2)on1 [compound 491, N-((1R,3s,5S)-8-((5-chloro-2-oxo-2,3-dihydrobenzo[d]oxazol-6-yl)sulfonyl)-8-azabicyclo[3.2.1]octan-3-yl)-5-cyclopropylisoxazole-3-carboxamide] | > 10 µM | > 10 µM | –
10 | O=C1Cc2cc(S(=O)(=O)N3[C@@H]4CC[C@H]3C[C@H](NC(=O)c3cc(C5CC5)on3)C4)ccc2N1 [compound 493, 5-cyclopropyl-N-((1R,3s,5S)-8-((2-oxoindolin-5-yl)sulfonyl)-8-azabicyclo[3.2.1]octan-3-yl)isoxazole-3-carboxamide] | 2.75 µM | 0.842 µM | –
11 | O=C(N[C@@H]1C[C@H]2CC[C@@H](C1)N2S(=O)(=O)CCCN1CCOCC1)c1cc(C2CC2)on1 [compound 495, 5-cyclopropyl-N-((1R,3s,5S)-8-((3-morpholinopropyl)sulfonyl)-8-azabicyclo[3.2.1]octan-3-yl)isoxazole-3-carboxamide] | > 10 µM | > 10 µM | –
12 | O=C(N[C@H]1C[C@H]2CC[C@@H](C1)N2S(=O)(=O)CCCN1CCOCC1)c1cc(C2CC2)on1 [compound 496, 5-cyclopropyl-N-((1R,3r,5S)-8-((3-morpholinopropyl)sulfonyl)-8-azabicyclo[3.2.1]octan-3-yl)isoxazole-3-carboxamide] | 0.854 µM | 0.162 µM | –
13 | O=C(N[C@H]1CCN(S(=O)(=O)CCCN2CCOCC2)[C@@H](Cc2ccccc2)C1)c1cc(C2CC2)on1 [compound 497, N-((2S,4S)-2-benzyl-1-((3-morpholinopropyl)sulfonyl)piperidin-4-yl)-5-cyclopropylisoxazole-3-carboxamide] | > 10 µM | > 10 µM | –
14 | O=C(N[C@H]1CCN(S(=O)(=O)CCCN2CCOCC2)[C@H](Cc2ccccc2)C1)c1cc(C2CC2)on1 [compound 498, N-((2R,4S)-2-benzyl-1-((3-morpholinopropyl)sulfonyl)piperidin-4-yl)-5-cyclopropylisoxazole-3-carboxamide] | > 10 µM | 9.96 µM | –
15 | O=C(N[C@H]1CCN(S(=O)(=O)CCN2CCOCC2)[C@H](Cc2ccccc2)C1)c1cc(C2CC2)on1 [compound 499, N-((2R,4S)-2-benzyl-1-((2-morpholinoethyl)sulfonyl)piperidin-4-yl)-5-cyclopropylisoxazole-3-carboxamide] | > 10 µM | > 10 µM | –
16 | CC(C)[C@@H]1C[C@H](NC(=O)c2cc(C3CC3)on2)CCN1S(=O)(=O)CCCN [compound 502, N-((2S,4R)-1-((3-aminopropyl)sulfonyl)-2-isopropylpiperidin-4-yl)-5-cyclopropylisoxazole-3-carboxamide] | > 10 µM | 0.766 µM | –
17 | CC(C)[C@H]1C[C@H](NC(=O)c2cc(C3CC3)on2)CCN1S(=O)(=O)CCCN [compound 503, N-((2R,4R)-1-((3-aminopropyl)sulfonyl)-2-isopropylpiperidin-4-yl)-5-cyclopropylisoxazole-3-carboxamide] | > 10 µM | 1.06 µM | –
18 | COCCN(C)c1ccc(S(=O)(=O)N2CC[C@H](NC(=O)c3cc(C4CC4)on3)C[C@H]2C)cn1 [compound 504, 5-cyclopropyl-N-((2R,4S)-1-((6-((2-methoxyethyl)(methyl)amino)pyridin-3-yl)sulfonyl)-2-methylpiperidin-4-yl)isoxazole-3-carboxamide] | > 10 µM | > 10 µM | –
19 | COCCNc1ccc(S(=O)(=O)N2CC[C@@H](NC(=O)c3cc(C4CC4)on3)C[C@@H]2C)cn1 [compound 505, 5-cyclopropyl-N-((2S,4R)-1-((6-((2-methoxyethyl)amino)pyridin-3-yl)sulfonyl)-2-methylpiperidin-4-yl)isoxazole-3-carboxamide] | > 10 µM | – | IC50 (SMYD3 [1]; read-out: SMYD3 Biochem IC50): > 10 µM
20 | C[C@@H]1C[C@@H](NC(=O)c2cc(C3CC3)on2)CCN1S(=O)(=O)c1ccc(NCCN2CCOCC2)nc1 [compound 506, 5-cyclopropyl-N-((2R,4S)-2-methyl-1-((6-((2-morpholinoethyl)amino)pyridin-3-yl)sulfonyl)piperidin-4-yl)isoxazole-3-carboxamide] | > 10 µM | 3.97 µM | –
21 | C[C@H]1C[C@H](NC(=O)c2cc(C3CC3)on2)CCN1S(=O)(=O)c1ccc(NCCN2CCOCC2)nc1 [compound 507, 5-cyclopropyl-N-((2S,4R)-2-methyl-1-((6-((2-morpholinoethyl)amino)pyridin-3-yl)sulfonyl)piperidin-4-yl)isoxazole-3-carboxamide] | > 10 µM | 5.54 µM | –
22 | O=C(N[C@H]1C[C@H]2CC[C@@H](C1)N2S(=O)(=O)CC1CCNCC1)c1cc(C2CC2)on1 [compound 526, 5-cyclopropyl-N-((1R,3r,5S)-8-((piperidin-4-ylmethyl)sulfonyl)-8-azabicyclo[3.2.1]octan-3-yl)isoxazole-3-carboxamide] | 0.015 µM | 0.001 µM | –
23 | O=C(N[C@H]1C[C@H]2CC[C@@H](C1)N2S(=O)(=O)N1CCNCC1)c1cc(C2CC2)on1 [compound 527, 5-cyclopropyl-N-((1R,3r,5S)-8-(piperazin-1-ylsulfonyl)-8-azabicyclo[3.2.1]octan-3-yl)isoxazole-3-carboxamide] | 0.032 µM | 0.003 µM | –
24 | C[C@H]1C[C@@H](NC(=O)c2cc(C3CC3)on2)CCN1S(=O)(=O)CC1CCN(CCc2ccccc2)CC1 [compound 530, 5-cyclopropyl-N-((2S,4S)-2-methyl-1-(((1-phenethylpiperidin-4-yl)methyl)sulfonyl)piperidin-4-yl)isoxazole-3-carboxamide] | – | – | IC50 (SMYD3 [1]; [7]): 0.0009 µM; IC50 (SMYD3 [2]; [8]): 0.0239 µM
25 | O=C(N[C@H]1C[C@H]2CC[C@@H](C1)N2S(=O)(=O)CC1CCN(CCO)CC1)c1cc(C2CC2)on1 [compound 531, 5-cyclopropyl-N-((1R,3r,5S)-8-(((1-(2-hydroxyethyl)piperidin-4-yl)methyl)sulfonyl)-8-azabicyclo[3.2.1]octan-3-yl)isoxazole-3-carboxamide] | – | – | IC50 (SMYD3 [1]; [7]): 0.0009 µM; IC50 (SMYD3 [2]; [8]): 0.0331 µM
26 | C[C@H]1C[C@@H](NC(=O)c2cc(C3CC3)on2)CCN1S(=O)(=O)CC1CCN(C)CC1 [compound 533, 5-cyclopropyl-N-((2S,4S)-2-methyl-1-(((1-methylpiperidin-4-yl)methyl)sulfonyl)piperidin-4-yl)isoxazole-3-carboxamide] | – | – | IC50 (SMYD3 [1]; [7]): 0.001 µM; IC50 (SMYD3 [2]; [8]): 0.0308 µM
27 | O=C(N[C@H]1C[C@H]2CC[C@@H](C1)N2S(=O)(=O)CC1CCN(CCCO)CC1)c1cc(C2CC2)on1 [compound 534, 5-cyclopropyl-N-((1R,3r,5S)-8-(((1-(3-hydroxypropyl)piperidin-4-yl)methyl)sulfonyl)-8-azabicyclo[3.2.1]octan-3-yl)isoxazole-3-carboxamide] | – | – | IC50 (SMYD3 [1]; [7]): 0.0011 µM; IC50 (SMYD3 [2]; [8]): 0.0277 µM
